Measured values: patent publication US20180271110A1, “REDUCTION OF MICROBIAL ACTIVITY AND METHOD OF PROCESSING ANIMAL AND POULTRY PRODUCTS” (Zee Company, priority 2017, published 2018)
Like-named read-outs stand apart in the source and are kept apart here.

What was measured:
[1] = system: Salmonella Enterica serovar enteriditis (SE); experiment: Antimicrobial efficacy of DCDMH vs DBDMH on Salmonella-contaminated chicken legs and beef cubes (15 s agitation in solution); type: cell-based; conditions: for log Reduction Ave.: 15 s agitation, 15 s drip
Procedure: In the following working example, a study was conducted to compare the antimicrobial efficacy of 1,3,-dichloro-5,5,-dimethylhydantoin (DCDMH) and 1,3,-dibromo-5,5,-dimethylhydantoin (DBDMH) at 200 ppm available chlorine on both chicken and beef test substrates. For sample preparation, chicken legs and beef cubes obtained from a local grocery store were used to conduct the following tests. Prior to exposure of the test substrates to the antimicrobial solutions having DCDMH or DBDMH, the test substrates were exposed for two hours in 300 mL of broth of Salmonella Enterica serovar enteriditis (SE), which had been grown to a concentration of >6 log 10 in Nutrient Broth for 2 h at 35° C. Following exposure, the test substrates were removed from the Nutrient Broth and allowed to drain and air dry for about 30 minutes at ambient room temperature before testing began.
1. The following solutions were prepared and distributed in 200 mL aliquots into Ziploc bags:
a. 200 ppm available chlorine solutions derived from DCDMH distributed it into an appropriate number of Ziploc bags;
b. FSIS new buffer solution containing Lecithin and Sodium thiosulfate (LST) into an appropriate number of Ziploc bags;
c. Phosphate Buffer Solution (PBS) into an appropriate number of Ziploc bags.
2. Into each bag of DCDMH solution, a Salmonella-contaminated test substrate was placed and agitated manually for 15 s. The test substrate was removed from the bag, allowed to drip for 15 s, then placed into a Ziploc bag containing 200 mL LST. The bag was then vigorously shaken for 45 s to neutralize the DCDMH and to release SE from the surface of the chicken leg.
3. After the bags were shaken, 100 μL from each of the shaken bags was removed and dispensed into test tubes containing 9.9 mL of DI HOH. The contents of these tubes were used for serial dilution.
4. As controls, a prepared test substrate was inserted into each of two bags of PBS and agitated manually for 15 s. The substrate was removed from the bag and placed directly into a Ziploc bag containing 200 mL LST. The bag was vigorously shaken for 45 s to release SE from the surface of the substrate.
5. Repeat Step 3 with the control solutions.
6. Serially dilute the contents of the test tubes from Step 3 above. Plate 100 μL aliquots on Salmonella-Shigella Agar (SSA), then incubate for 18-24 h at 35° C. Enumerate colonies that have black centers (presumptive SE) after incubation.
7. Repeat the entire protocol replacing the DCDMH solution with […] solution in Step 1.a.

[2] = system: Salmonella Enterica serovar enteriditis (SE)
Procedure: In the following working example, a study was conducted to compare the antimicrobial efficacy of 1,3,-dichloro-5,5,-dimethylhydantoin (DCDMH) at various concentrations (50 ppm, 100 ppm, and 200 ppm) on chicken test substrates, namely, chicken legs and chicken liver. Prior to exposure of the test substrates to the antimicrobial solutions having DCDMH, the test substrates were incubated for two hours in 1000 mL of broth of Salmonella Enterica serovar enteriditis (SE), which had been grown to a concentration of >6 log 10 in Nutrient Broth for 2 h at 35° C. Following exposure, the test substrates were removed from the Nutrient Broth and allowed to drain and air dry for about 30 minutes at ambient room temperature before testing began. The test was replicated 10 times for each concentration and two controls. The concentration of DCDMH was then tested on the exposed test substrates using spray and dip applications.
1. A test poultry product (e.g., chicken leg or chicken liver) was suspended on a stainless steel hook in a spray cabinet and sprayed until the part was drenched with antimicrobial solution, which was for about 5 to about 10 seconds;
2. The test poultry product was allowed to drip for about 10 to about 50 seconds (to obtain total antimicrobial contact times of about 15 to about 60 seconds when combined with the exposure in step 1 above);
3. The test poultry product was then placed in a Ziploc bag containing 200 mL of LST solution to neutralize any residual antimicrobial chemistry;
4. The Ziploc bag containing the test poultry product was then vigorously shaken for about for 45 seconds to release bacterial cells from the surface of the poultry product into the LST solution;
(§1) 5. A 100 μL aliquot of LST solution from the bag was injected into 9.9 mL of sterile phosphate buffer solution;
6. The LST solution was serially diluted, then plated on Salmonella Shigella agar and incubated for 24-36 hours prior to counting presumptive positive Salmonella colonies;
(§2) 7. This procedure was repeated at each concentration of DCDMH;
8. For controls, 2 poultry legs and 2 poultry livers for the corresponding test were treated as in steps 1-2 above, except the control poultry products were drenched with sterile deionized water in step 1 above. And then steps 2-6 of the process above were continued.
1. A test poultry product was placed in a Ziploc bag containing 200 mL of the antimicrobial solution and allowed to remain in the solution for about 15 to about 30 seconds under gentle manual agitation;
2. The test poultry product was removed from the test solution using sterile forceps and allowed to drip for about 0 to about 30 seconds (to obtain total antimicrobial contact times of about 15 to about 60 seconds when combined with the exposure in step 1 above);
3. The test poultry product was then placed in a Ziploc bag containing 200 mL broth of LST solution to neutralize any residual antimicrobial chemistry;
(§3) 4. The Ziploc bag containing the test substrate cube was then vigorously shaken for about for 45 seconds to release bacterial cells from the surface of the meat into the LST solution;
(§4) 6. The LST solution was serially diluted, then plated on Salmonella Shigella agar and incubated for 24 h prior to counting presumptive positive Salmonella colonies;
8. For controls, 2 poultry legs and 2 poultry liver for each test were treated as in steps 1-2 above, except the test substrate cubes were placed in 200 mL Ziploc bags of phosphate buffer solution in step 1 above. And then steps 2-6 of the process above were continued.

[3] = system: Salmonella Enterica serovar enteriditis (SE); remark: listed apart in the source
Procedure: In the following working example, a study was conducted to compare the antimicrobial efficacy of 1,3,-dichloro-5,5,-dimethylhydantoin (DCDMH) at various concentrations (100 ppm, 200 ppm, and 400 ppm) on beef test substrates from beef brisket and beef liver. For sample preparation, beef brisket and beef liver were cubed to have approximately […] of exposed surface. Prior to exposure of the test substrates to the antimicrobial solutions having DCDMH, the test substrates were incubated for two hours in 300 mL of broth of Salmonella Enterica serovar enteriditis (SE), which had been grown to a concentration of >6 log 10 in Nutrient Broth for 2 h at 35° C. Following exposure, the test substrates were removed from the Nutrient Broth and allowed to drain and air dry for about 30 minutes at ambient room temperature before testing began. The test was replicated 10 times for each concentration and two controls. The concentration of DCDMH was then tested on the exposed test substrates using spray and dip applications.
1. A test substrate cube was suspended on a stainless steel hook and the antimicrobial solution was atomized onto the cube to thoroughly cover all sides until solution was dripping from the test substrate cube, which was for about 5 to about 10 seconds;
2. The test substrate cube was allowed to drip for about 10 to about 50 seconds (to obtain total antimicrobial contact times of about 15 to about 60 seconds when combined with the exposure in step 1 above).
3. The test substrate cube was then placed in a Ziploc bag containing 100 mL of LST solution to neutralize any residual antimicrobial chemistry;
as §3, §1, §4, §2
8. For controls, 2 cubes of each test substrate were treated as in steps 1-2 above, except the control substrate cubes were atomized with sterile deionized water in step 1 above. And then steps 2-6 of the process above were continued.
1. A test substrate cube was placed in a Ziploc bag containing 100 mL of the antimicrobial solution and allowed to remain in the solution for about 15 to about 30 seconds under gentle manual agitation;
2. The test substrate cube was removed from the test solution using sterile forceps and allowed to drip for about 0 to about 30 seconds (to obtain total antimicrobial contact times of about 15 to about 60 seconds when combined with the exposure in step 1 above);
8. For controls, 2 cubes of each test substrate were treated as in steps 1-2 above, except the control substrate cubes were placed in 100 mL Ziploc bags of phosphate buffer solution in step 1 above. And then steps 2-6 of the process above were continued.

[4] = beef test substrate, 200 ppm available chlorine
[5] = chicken test substrate, 200 ppm available chlorine

SMILES	log Reduction Ave. [1, 4] [log]	log Reduction Ave. [1, 5] [log]	Ave. Log Reduction ([2]; Chicken Leg, Active Cl 50 ppm, Dip, 60 seconds) [log]	Ave. Log Reduction ([2]; Chicken Leg, Active Cl 100 ppm, Spray, 30 seconds) [log]	Ave. Log Reduction ([2]; Chicken Leg, Active Cl 200 ppm, Dip, 15 seconds) [log]	Ave. Log Reduction ([2]; Chicken Liver, Active Cl 50 ppm, Dip, 60 seconds) [log]	Ave. Log Reduction ([2]; Chicken Liver, Active Cl 100 ppm, Spray, 30 seconds) [log]	Ave. Log Reduction ([2]; Chicken Liver, Active Cl 200 ppm, Dip, 15 seconds) [log]	antimicrobial efficacy against S. Enteritidis ([2]; about 50 ppm to about 200 ppm, dip or spray application, poultry products)	anticipated efficacy (log reduction) under normal in-plant use conditions ([2]; normal in-plant use conditions, about 50 to about 200 ppm, dip or spray, anticipated) [log]	antimicrobial efficacy against S. Enteritidis compared with DBDMH ([1]; 200 ppm available chlorine, chicken and beef, short contact time)	anticipated efficacy (log reduction) under normal in-plant use conditions ([1]; normal in-plant use conditions, anticipated) [log]	Ave. Log Reduction ([3]; Beef Liver, Active Cl 100 ppm, Dip, 60 seconds) [log]	Ave. Log Reduction ([3]; Beef Liver, Active Cl 200 ppm, Spray, 30 seconds) [log]	Ave. Log Reduction ([3]; Beef Liver, Active Cl 400 ppm, Dip, 15 seconds) [log]	Ave. Log Reduction ([3]; Beef Muscle, Active Cl 100 ppm, Dip, 60 seconds) [log]	Ave. Log Reduction ([3]; Beef Muscle, Active Cl 200 ppm, Spray, 30 seconds) [log]	Ave. Log Reduction ([3]; Beef Muscle, Active Cl 400 ppm, Dip, 15 seconds) [log]	antimicrobial efficacy against S. Enteritidis ([3]; about 100 ppm to about 400 ppm, dip or spray application, beef substrates)	anticipated efficacy (log reduction) under normal in-plant use conditions ([3]; normal in-plant use conditions, about 100 to about 400 ppm, dip or spray, anticipated) [log]
CC1(C)C(=O)N(Br)C(=O)N1Br [DBDMH, 1,3,-dibromo-5,5,-dimethylhydantoin, reference compound]	0.15	0.29	–	–	–	–	–	–	–	–	–	–	–	–	–	–	–	–	–	–
CC1(C)C(=O)N(Cl)C(=O)N1Cl [DCDMH, 1,3,-dichloro-5,5,-dimethylhydantoin]	0.51	0.64	0.78	0.86	1.22	0.69	0.72	1.07	great antimicrobial efficacy	> 1	substantially greater antimicrobial efficacy	> 1	0.90	1.01	1.11	0.89	0.91	1.18	great antimicrobial efficacy	> 1
